Where two headings read alike, the source gives them in different places.
Legend:
myeloperoxidase = molecular target: T1, myeloperoxidase (Homo sapiens, UniProt P05164); details: in the presence of active myeloperoxidase; cited from earlier work
T1 sequence (P05164 49-745): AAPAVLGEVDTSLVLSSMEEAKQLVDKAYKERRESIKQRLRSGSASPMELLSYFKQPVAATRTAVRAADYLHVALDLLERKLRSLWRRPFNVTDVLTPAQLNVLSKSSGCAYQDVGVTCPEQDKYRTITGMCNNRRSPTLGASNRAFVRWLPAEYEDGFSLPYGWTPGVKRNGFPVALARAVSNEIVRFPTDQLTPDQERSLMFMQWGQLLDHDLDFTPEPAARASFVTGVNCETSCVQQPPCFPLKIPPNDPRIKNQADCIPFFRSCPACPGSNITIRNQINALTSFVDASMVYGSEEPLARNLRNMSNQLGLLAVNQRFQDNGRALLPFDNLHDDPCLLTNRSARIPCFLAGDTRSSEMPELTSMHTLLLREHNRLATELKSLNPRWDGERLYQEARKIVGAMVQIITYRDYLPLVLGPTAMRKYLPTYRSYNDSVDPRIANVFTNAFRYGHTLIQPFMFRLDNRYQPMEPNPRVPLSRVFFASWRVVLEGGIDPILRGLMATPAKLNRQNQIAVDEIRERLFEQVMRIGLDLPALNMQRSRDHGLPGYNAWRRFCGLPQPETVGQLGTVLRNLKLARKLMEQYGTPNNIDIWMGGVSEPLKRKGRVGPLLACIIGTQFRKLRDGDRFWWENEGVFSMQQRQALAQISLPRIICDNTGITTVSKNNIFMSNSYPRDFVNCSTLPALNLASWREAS

human serum albumin = human serum albumin (Homo sapiens, UniProt P02768); details: cited from earlier work; for increase of relaxivity of the bound form: in the presence of human serum albumin
albumin [1] = details: 1.5 T, cited from earlier work
rabbit serum albumin = molecular target: T2, rabbit serum albumin (Oryctolagus cuniculus, UniProt P49065); experiment: MRI phantom imaging (T1 weighted and DREMR) with and without rabbit serum albumin; details: 1.5 T, 21° C.
T2 construct: purchased Sigma-Aldrich batch 104K7560 (catalogue number not given)
Method: The particular choice of agent/protein pair was based by the availability of the contrast agent and its well-documented relaxivity mechanisms, rather than any specific clinical or research interest in albumin.
An MRI phantom (see FIG. 5a) was constructed that held two columns of six rows of glass tubes; each tube 3 cm in length with a 0.4 mL capacity. The sample tubes in the left column were filled with 0.01 M phosphate buffered saline (PBS) (NaCl 0.138M, KCl 0.0027M, pH 7.4 at 25° C.). The right column of sample tubes held a solute of rabbit serum albumin (Sigma-Aldrich, batch 104K7560, agarose gel electrophoresis) in PBS. The albumin, purchased as a lyophilized powder, was dissolved in PBS, at a 4.5% weight to volume ratio resulting in ˜0.67 mM concentration. Vasovist (0.25 mmol/mL) was added in equal concentration to both columns to achieve sample concentrations of 0, 10, 20, 40, 80 and 160 μM as a function of descending rows.
Imaging was performed on a Sigma LX 1.5 T clinical MRI machine (General Electric Healthcare), equipped with an actively shielded electromagnetic ΔB insert (19). […]

albumin [2] = experiment: Relaxivity in the presence and absence of albumin at 1.5 T; format: physicochemical
Method: To characterize the efficacy of an activatable contrast agent, the relaxivity enhancement ratio, that is the ratio of the activated relaxivity to the inactivated relaxivity can be defined. For Vasovist at a magnetic field strength equal to 1.5 T, the relaxivities in the presence and absence of albumin are 19 s^−1 mM^−1 and 5.2 s^−1 mM^−1 respectively, resulting in a relaxivity enhancement ratio of 3.7. From FIG. 3 it can be seen that the Vasovist relaxivity enhancement ratio peaks in the vicinity of a magnetic filed strength equal to 0.5 T, and falls quickly for magnetic field strengths above that value.
Defining R1′ and r1′ as the partial derivatives of R1 and r1 with respect to the polarizing magnetic field B0 results in R1′=R1Unenhanced′+r1′*[CA]. Applying the approximation that R1′Unenhanced≈0 for magnetic fields above 1.0 T, results in the expression R1′≈r1′*[CA]. […] For Vasovist, the relaxivity slope enhancement ratio (ratio of activated r1′ to inactivated r1′) is 90 at a magnetic field strength equal to 1.5 T. This represents a 25-fold increase over the absolute relaxivity enhancement ratio of 3.7 mentioned above. The high specificity of DREMR enhancement is not specific to Vasovist but applies to any T1 contrast agent that undergoes binding to large molecules (15).

human serum albumin, sequence (P02768 25-609): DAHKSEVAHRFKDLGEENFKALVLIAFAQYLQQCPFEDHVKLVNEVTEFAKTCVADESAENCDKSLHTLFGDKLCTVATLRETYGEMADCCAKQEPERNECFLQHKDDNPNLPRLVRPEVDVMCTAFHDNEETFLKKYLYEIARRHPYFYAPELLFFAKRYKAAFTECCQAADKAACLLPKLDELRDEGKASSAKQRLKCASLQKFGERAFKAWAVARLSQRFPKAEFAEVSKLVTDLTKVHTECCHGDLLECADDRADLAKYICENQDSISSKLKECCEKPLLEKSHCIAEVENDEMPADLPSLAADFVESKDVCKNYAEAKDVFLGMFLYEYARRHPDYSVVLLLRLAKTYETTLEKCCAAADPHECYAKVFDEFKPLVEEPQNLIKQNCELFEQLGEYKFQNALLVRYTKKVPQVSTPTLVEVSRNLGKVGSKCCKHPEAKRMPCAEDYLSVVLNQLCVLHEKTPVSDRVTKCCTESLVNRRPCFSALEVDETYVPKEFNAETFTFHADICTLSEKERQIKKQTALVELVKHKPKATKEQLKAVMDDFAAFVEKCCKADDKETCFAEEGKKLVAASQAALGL
T2 sequence (P49065 25-608): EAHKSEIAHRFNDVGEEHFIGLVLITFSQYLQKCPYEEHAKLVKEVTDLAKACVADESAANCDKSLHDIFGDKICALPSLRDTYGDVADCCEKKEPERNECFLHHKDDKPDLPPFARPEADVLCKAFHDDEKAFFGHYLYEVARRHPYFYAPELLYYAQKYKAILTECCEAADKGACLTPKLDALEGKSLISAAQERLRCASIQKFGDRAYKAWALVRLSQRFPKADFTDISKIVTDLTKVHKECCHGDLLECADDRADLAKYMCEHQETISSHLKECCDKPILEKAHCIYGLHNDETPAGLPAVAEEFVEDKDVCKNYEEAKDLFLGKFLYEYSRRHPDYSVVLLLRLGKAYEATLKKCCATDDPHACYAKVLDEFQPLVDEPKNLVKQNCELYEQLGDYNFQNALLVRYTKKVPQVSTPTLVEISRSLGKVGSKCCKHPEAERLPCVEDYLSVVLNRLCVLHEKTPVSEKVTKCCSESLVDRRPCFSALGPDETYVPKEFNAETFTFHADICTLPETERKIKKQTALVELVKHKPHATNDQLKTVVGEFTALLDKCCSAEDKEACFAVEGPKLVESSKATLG

Row | Compound | relaxivity change on conversion to oligomeric form (myeloperoxidase) | binding to human serum albumin (human serum albumin) | increase of relaxivity of the bound form (human serum albumin; 30 Mhz) | increase of relaxivity of the bound form (human serum albumin; 60 MHz) | relaxivity (albumin [1]; absence of albumin) [s⁻¹ mM⁻¹] | relaxivity (albumin [1]; presence of albumin) [s⁻¹ mM⁻¹] | DREMR image intensity, albumin samples (rabbit serum albumin; 4.5% rabbit serum albumin in PBS, ±70 mT ΔB) | standard T1 weighted spin-echo image intensity (rabbit serum albumin; albumin solution and PBS samples, 0-160 μM) | increase of relaxivity slope enhancement ratio over absolute relaxivity enhancement ratio (albumin [2]; 1.5 T) [fold] | relaxivity enhancement ratio (activated relaxivity to inactivated relaxivity) (albumin [2]; 1.5 T) | relaxivity slope enhancement ratio (activated r1′ to inactivated r1′) (albumin [2]; 1.5 T) | magnetic field strength at which the relaxivity enhancement ratio peaks (albumin [2]; from FIG. 3) [T]
1 | O=C([O-])CN(CCN(CC(=O)[O-])CC(=O)NCCc1c[nH]c2ccc(O)cc12)CCN(CC(=O)[O-])CC(=O)NCCc1c[nH]c2ccc(O)cc12.[Gd+3] [bis-5-HT-DTPA(Gd)] | enhanced relaxivity | – | – | – | – | – | – | – | – | – | – | –
2 | O=C([O-])CN(CCN(CC(=O)[O-])CC(COP(=O)([O-])OC1CCC(c2ccccc2)(c2ccccc2)CC1)N(CC(=O)[O-])CC(=O)[O-])CC(=O)[O-].[Gd+3].[Na+].[Na+].[Na+] (stereo not drawn) [Vasovist, Gadofosveset trisodium] | – | strong non-covalent binding | approximately an order of magnitude | approximately four-fold | 5.2 | 19 | continued to demonstrate dependence on Vasovist concentration | demonstrated significant dependence on Vasovist concentration | 25 | 3.7 | 90 | ~0.5
